# In patent US20240116985A1, “STAPLED PEPTIDES AND METHODS THEREOF” (priority 2020, published 2024):
# Tests used:
# [1] = CHI Log D procedure; assay type: physicochemical; conditions: for chromatographic logD: pH 7.4, CHI Log D; for CHI Log D: pH 7.4
# [2] = biological target: T1, full-length beta-Catenin (Uniprot ID P35222) (Homo sapiens, UniProt P35222); test: Fluorescence polarization IC50 (beta-catenin / 5FAM-TCF4 10-53 competition); assay type: binding; conditions: fluorescence polarization; read-out: beta-Catenin FP IC50
# T1 construct: 10 nM full-length beta-Catenin (Uniprot ID P35222)
# T1 sequence (P35222 1-781): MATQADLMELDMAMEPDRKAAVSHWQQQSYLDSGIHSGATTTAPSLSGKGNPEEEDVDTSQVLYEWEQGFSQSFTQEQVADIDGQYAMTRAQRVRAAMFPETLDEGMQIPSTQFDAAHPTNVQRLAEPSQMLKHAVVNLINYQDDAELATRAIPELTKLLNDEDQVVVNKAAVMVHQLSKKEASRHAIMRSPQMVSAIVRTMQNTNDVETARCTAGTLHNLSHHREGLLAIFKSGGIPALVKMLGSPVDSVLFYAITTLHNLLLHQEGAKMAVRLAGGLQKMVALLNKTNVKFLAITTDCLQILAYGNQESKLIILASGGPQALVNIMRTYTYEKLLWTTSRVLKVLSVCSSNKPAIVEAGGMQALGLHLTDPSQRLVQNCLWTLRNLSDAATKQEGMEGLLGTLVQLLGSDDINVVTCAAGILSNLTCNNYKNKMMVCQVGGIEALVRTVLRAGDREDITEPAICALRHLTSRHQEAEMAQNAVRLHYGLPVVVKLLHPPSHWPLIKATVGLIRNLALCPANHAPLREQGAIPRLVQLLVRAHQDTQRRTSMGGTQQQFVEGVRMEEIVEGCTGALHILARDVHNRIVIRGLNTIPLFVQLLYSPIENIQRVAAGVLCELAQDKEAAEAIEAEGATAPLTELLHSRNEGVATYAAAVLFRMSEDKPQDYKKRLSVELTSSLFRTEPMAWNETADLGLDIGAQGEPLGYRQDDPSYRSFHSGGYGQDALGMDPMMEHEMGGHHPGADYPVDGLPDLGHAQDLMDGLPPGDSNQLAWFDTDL
# [3] = biological target: T2, beta-catenin/TCF4 engagement (Homo sapiens, UniProt P35222); test: Nano-BRET target engagement assay (B-cat-Halo & TCF4-Luc in HEK293 cells); assay type: cell-based; conditions: read-out: NanoBRET Abs IC50
# T2 construct: expressed in transfected cells; host or cells: HEK293
# T2 sequence (P35222 1-781): T1 sequence (P35222 1-781)
SMILES,chromatographic logD [1],CHI Log D [1],also measured
"CC(=O)N[C@@H](Cc1ccccc1)C(=O)N[C@@H](CC(=O)O)C(=O)N[C@@H](C)C(=O)N[C@]1(C)CCCCCCC=CCOC(=O)N2CC[C@@](C(=O)N[C@@H](Cc3ccccc3)C(=O)N[C@@H](Cc3c[nH]c4ccccc34)C(=O)N[C@@H](CCC(N)=O)C(N)=O)(C2)NC(=O)[C@H](C(C)C)NC(=O)[C@H](Cc2ccccc2)NC(=O)[C@H](C)NC(=O)[C@H](C)NC(=O)[C@H](CCCC(=O)O)NC(=O)[C@H](CC(=O)O)NC1=O (single isomer, unassigned) [I-5, Ac-Phe-Asp-Ala-R8-Asp-Aad-Ala-Ala-Phe-Val-PyrS-Phe-Trp-Gln-NH2]",1.33,–,–
"CC(=O)N[C@@H](Cc1ccccc1)C(=O)N[C@@H](CC(=O)O)C(=O)N[C@@H](C)C(=O)N[C@]1(C)CCCCCCC=CCOC(=O)N2CC[C@@](C(=O)N[C@@H](Cc3ccccc3)C(=O)N[C@@H](Cc3c[nH]c4ccccc34)C(=O)N[C@@H](CCC(N)=O)C(N)=O)(C2)NC(=O)[C@H](C(C)C)NC(=O)[C@H](Cc2ccccc2)NC(=O)[C@H](C)NC(=O)[C@H](C)NC(=O)[C@H](Cc2ccc(C(=O)O)cc2)NC(=O)[C@H](CC(=O)O)NC1=O (single isomer, unassigned) [I-7, Ac-Phe-Asp-Ala-R8-Asp-4COOHF-Ala-Ala-Phe-Val-PyrS-Phe-Trp-Gln-NH2]",1.32,–,–
"CC(=O)N[C@@H](Cc1ccccc1)C(=O)N[C@@H](CC(=O)O)C(=O)N[C@@H](C)C(=O)N[C@]1(C)CCCCCCC=CCOC(=O)N2CC[C@@](C(=O)N[C@@H](Cc3ccccc3)C(=O)N[C@@H](Cc3c[nH]c4ccccc34)C(=O)N[C@@H](CCC(N)=O)C(N)=O)(C2)NC(=O)[C@H](C(C)C)NC(=O)[C@H](Cc2ccccc2)NC(=O)[C@H](C)NC(=O)[C@H](C)NC(=O)[C@H](Cc2ccc(C(=O)O)cc2)NC(=O)[C@H](CC(=O)O)NC1=O (single isomer, unassigned) [I-8, Ac-Phe-Asp-Ala-R8-Asp-4COOHF-Ala-Ala-Phe-Val-PyrS-Phe-Trp-Gln-NH2]",–,1.349,–
"CC(=O)N[C@@H](Cc1ccccc1)C(=O)N[C@@H](CC(=O)O)C(=O)N[C@@H](C)C(=O)N[C@]1(C)CCCCCCC=CCOC(=O)N2CC[C@@](C(=O)N[C@@H](Cc3ccccc3)C(=O)N[C@@H](Cc3c[nH]c4ccccc34)C(=O)N[C@@H](CCC(N)=O)C(N)=O)(C2)NC(=O)[C@H](C(C)C)NC(=O)[C@H](Cc2ccccc2)NC(=O)[C@H](C)NC(=O)[C@H](C)NC(=O)[C@H](Cc2cccnc2)NC(=O)[C@H](CC(=O)O)NC1=O (single isomer, unassigned) [I-9, Ac-Phe-Asp-Ala-R8-Asp-3PyrA-Ala-Ala-Phe-Val-PyrS-Phe-Trp-Gln-NH2]",1.65,–,–
"CC(=O)N[C@@H](Cc1ccccc1)C(=O)N[C@@H](CC(=O)O)C(=O)N[C@@H](C)C(=O)N[C@]1(C)CCCCCCC=CCOC(=O)N2CC[C@@](C(=O)N[C@@H](Cc3ccccc3)C(=O)N[C@@H](Cc3c[nH]c4ccccc34)C(=O)N[C@@H](CCC(N)=O)C(N)=O)(C2)NC(=O)[C@H](C(C)C)NC(=O)[C@H](Cc2ccccc2)NC(=O)[C@H](C)NC(=O)[C@H](C)NC(=O)[C@H](Cc2ccc(-c3ccccc3)cc2)NC(=O)[C@H](CC(=O)O)NC1=O (single isomer, unassigned) [I-11, Ac-Phe-Asp-Ala-R8-Asp-Bip-Ala-Ala-Phe-Val-PyrS-Phe-Trp-Gln-NH2]",2.27,–,–
"CC(=O)N[C@@H](Cc1ccccc1)C(=O)N[C@@H](CC(=O)O)C(=O)N[C@@H](C)C(=O)N[C@]1(C)CCCCCCC=CCOC(=O)N2CC[C@@](C(=O)N[C@@H](Cc3ccccc3)C(=O)N[C@@H](Cc3c[nH]c4ccccc34)C(=O)N[C@@H](CCC(N)=O)C(N)=O)(C2)NC(=O)[C@H](C(C)C)NC(=O)[C@H](Cc2ccccc2)NC(=O)[C@H](C)NC(=O)[C@H](C)NC(=O)[C@H](Cc2ccc(-c3ccccc3)cc2)NC(=O)[C@H](CC(=O)O)NC1=O (single isomer, unassigned) [I-12, Ac-Phe-Asp-Ala-R8-Asp-Bip-Ala-Ala-Phe-Val-PyrS-Phe-Trp-Gln-NH2]",–,2.247,–
"CC(=O)N1CCC[C@]12CC1OC1CCCC1(CCCC=CCCCOC(=O)N3CC[C@@](C(=O)N[C@@H](Cc4ccsc4)C(=O)N[C@@H](Cc4csc5ccccc45)C(=O)N[C@@H](CCC(N)=O)C(N)=O)(C3)NC(=O)[C@H](CC(C)C)NC(=O)[C@H](Cc3ccccc3)NC(=O)[C@H](C)NC(=O)[C@H](C)NC(=O)[C@H](CN(CC(=O)O)CC(F)(F)F)NC(=O)[C@H](CC(=O)O)NC1=O)NC(=O)[C@H](CC(C)(C)C)NC(=O)[C@H](CC(=O)O)NC2=O (stereo partly drawn) [I-2594, Ac-PL3-Asp-Npg-B5-Asp-TfeGA-Ala-Ala-Phe-Leu-PyrS2-3Thi-BztA-Gln-NH2]",–,–,IC50 [2]: 470 nM; IC50 [3]: > 20000 nM
"CC(=O)N1CCC[C@]12CC1OC1CCCC1(CCCC=CCCCOC(=O)N3CC[C@@](C(=O)N[C@@H](Cc4ccsc4)C(=O)N[C@@H](Cc4csc5ccccc45)C(=O)N[C@@H](CCC(N)=O)C(N)=O)(C3)NC(=O)[C@H](CC(C)C)NC(=O)[C@H](Cc3ccccc3)NC(=O)[C@H](C)NC(=O)[C@H](C)NC(=O)[C@H](CN(CC(=O)O)CC(F)(F)F)NC(=O)[C@H](CC(=O)O)NC1=O)NC(=O)[C@H](CC(C)(C)C)NC(=O)[C@H](CC(=O)O)NC2=O (stereo partly drawn) [I-2595, Ac-PL3-Asp-Npg-B5-Asp-TfeGA-Ala-Ala-Phe-Leu-PyrS2-3Thi-BztA-Gln-NH2]",–,–,IC50 [2]: 356 nM; IC50 [3]: > 20000 nM
"CC(C)C[C@H](NC(=O)[C@]12CCN(C1)C(=O)OCCCC=CCCCC1(CCCC=CCCC(=O)N3CCC[C@@]3(C)C(=O)N[C@@H](CC(=O)O)C(=O)N1)C(=O)N[C@@H](C)C(=O)N[C@@H](CC(=O)O)C(=O)N[C@@H](CC(=O)O)C(=O)N[C@@H](C)C(=O)N[C@@H](C)C(=O)N[C@@H](Cc1ccccc1)C(=O)N2)C(=O)N[C@@H](Cc1ccsc1)C(=O)N[C@@H](Cc1csc2ccccc12)C(=O)N[C@@H](CCC(N)=O)C(N)=O (stereo partly drawn) [I-2599, 4pentenyl-MePro-Asp-B5-Ala-Asp-Asp-Ala-Ala-Phe-PyrS2-Leu-3Thi-BztA-Gln-NH2]",–,–,IC50 [2]: 234 nM; IC50 [3]: > 20000 nM

# Continued, in another order:
chromatographic logD [1],CHI Log D [1],SMILES,also measured
1.27,–,"CC(=O)N[C@@H](Cc1ccccc1)C(=O)N[C@@H](CC(=O)O)C(=O)N[C@@H](C)C(=O)N[C@]1(C)CCN(C)C(=O)OCC=CCCCCC[C@@](C)(C(=O)N[C@@H](Cc2ccccc2)C(=O)N[C@@H](Cc2c[nH]c3ccccc23)C(=O)N[C@@H](CCC(N)=O)C(N)=O)NC(=O)[C@H](C(C)C)NC(=O)[C@H](Cc2ccccc2)NC(=O)[C@H](C)NC(=O)[C@H](C)NC(=O)[C@H](CC(=O)O)NC(=O)[C@H](CC(=O)O)NC1=O (single isomer, unassigned) [I-1, Ac-Phe-Asp-Ala-RdN-Asp-Asp-Ala-Ala-Phe-Val-S7-Phe-Trp-Gln-NH2]",–
–,1.246,"CC(=O)N[C@@H](Cc1ccccc1)C(=O)N[C@@H](CC(=O)O)C(=O)N[C@@H](C)C(=O)N[C@]1(C)CCN(C)C(=O)OCC=CCCCCC[C@@](C)(C(=O)N[C@@H](Cc2ccccc2)C(=O)N[C@@H](Cc2c[nH]c3ccccc23)C(=O)N[C@@H](CCC(N)=O)C(N)=O)NC(=O)[C@H](C(C)C)NC(=O)[C@H](Cc2ccccc2)NC(=O)[C@H](C)NC(=O)[C@H](C)NC(=O)[C@H](CC(=O)O)NC(=O)[C@H](CC(=O)O)NC1=O (single isomer, unassigned) [I-2, Ac-Phe-Asp-Ala-RdN-Asp-Asp-Ala-Ala-Phe-Val-S7-Phe-Trp-Gln-NH2]",–
–,1.661,"CC(=O)N[C@@H](Cc1ccccc1)C(=O)N[C@@H](CC(=O)O)C(=O)N[C@@H](C)C(=O)N[C@]1(C)CCCCCCC=CCOC(=O)N2CC[C@@](C(=O)N[C@@H](Cc3ccccc3)C(=O)N[C@@H](Cc3c[nH]c4ccccc34)C(=O)N[C@@H](CCC(N)=O)C(N)=O)(C2)NC(=O)[C@H](C(C)C)NC(=O)[C@H](Cc2ccccc2)NC(=O)[C@H](C)NC(=O)[C@H](C)NC(=O)[C@H](Cc2cccnc2)NC(=O)[C@H](CC(=O)O)NC1=O (single isomer, unassigned) [I-10, Ac-Phe-Asp-Ala-R8-Asp-3PyrA-Ala-Ala-Phe-Val-PyrS-Phe-Trp-Gln-NH2]",–
2.01,–,"CCCC[C@@H]1NC(=O)[C@H](CC(=O)O)NC(=O)[C@](C)(NC(=O)[C@H](C)NC(=O)[C@H](CC(=O)O)NC(=O)[C@H](Cc2ccccc2)NC(C)=O)CCCCCCC=CCOC(=O)N2CC[C@@](C(=O)N[C@@H](Cc3ccccc3)C(=O)N[C@@H](Cc3c[nH]c4ccccc34)C(=O)N[C@@H](CCC(N)=O)C(N)=O)(C2)NC(=O)[C@H](C(C)C)NC(=O)[C@H](Cc2ccccc2)NC(=O)[C@H](C)NC(=O)[C@H](C)NC1=O (single isomer, unassigned) [I-13, Ac-Phe-Asp-Ala-R8-Asp-nLeu-Ala-Ala-Phe-Val-PyrS-Phe-Trp-Gln-NH2]",–
